Experimental data published in ChEMBL document CHEMBL4483862, “Open-source discovery of chemical leads for next-generation chemoprotective antimalarials” (2018).

System: Plasmodium berghei
Test: Luciferase/luciferin-expressing antifolate-resistant parasites were used to infect a culture of HepG2 cells that were pre-incubated with compounds. Infected hepatocytes emit light due to the luciferase reaction. Assay results are presented as the percent inhibition of light emission compared to control. […]
Type: functional
Conditions: sporozoite; for IC90: read-out: LUCIFERASE INFECTION ASSAY - IC90
[1] = read-out: LUCIFERASE INFECTION ASSAY - IC50

| SMILES | IC90 | other results |
| --- | --- | --- |
| FC(F)(F)c1cccc(-c2cc3c(Nc4ccc5c(c4)OCCO5)nccc3[nH]2)c1 | 5.7 µM | IC50 (HEPG2TOX_HILL_SLOPE 20.2, HEPG2TOX_R_SQUARED 0.64, PBLUC_HILL_SLOPE 4.68, PBLUC_R_SQUARED 0.558, read-out: LUCIFERASE INFECTION ASSAY - IC50): 3.56 µM |
| CC(CCc1ccccc1)Nc1ccc(S(N)(=O)=O)cc1[N+](=O)[O-] (configuration not stated) | > 10 µM | IC50 (HEPG2TOX_HILL_SLOPE 0.279, HEPG2TOX_R_SQUARED 0.54, PBLUC_HILL_SLOPE 1.88, PBLUC_R_SQUARED 0.412, read-out: LUCIFERASE INFECTION ASSAY - IC50): 8.69 µM |
| CC(C)CN(C(=O)CN(C)C(=O)c1ccco1)c1c(N)n(CC(C)C)c(=O)[nH]c1=O | > 10 µM | IC50 [1]: > 10 µM |
| O=C(CCC(=O)N1CCC(C(O)(c2ccccc2)c2ccccc2)CC1)c1cccs1 | 3.65 µM | IC50 (HEPG2TOX_HILL_SLOPE 0.15, HEPG2TOX_R_SQUARED 0.513, PBLUC_HILL_SLOPE 4.19, PBLUC_R_SQUARED 0.279, read-out: LUCIFERASE INFECTION ASSAY - IC50): 2.16 µM |
| CCOc1ccc(NC(=S)N/N=C2/C(=O)c3cccc4cccc2c34)cc1 | > 10 µM | IC50 (FFLUC_HILL_SLOPE 16.1, FFLUC_R_SQUARED 0.465, PBLUC_HILL_SLOPE 2.76, PBLUC_R_SQUARED 0.814, read-out: LUCIFERASE INFECTION ASSAY - IC50): 4.61 µM |
| COc1ccc(C(NCC(=O)Nc2sccc2C(N)=O)c2ccccc2)cc1 (configuration not stated) | > 10 µM | IC50 (PBLUC_HILL_SLOPE 3.52, PBLUC_R_SQUARED 0.517, read-out: LUCIFERASE INFECTION ASSAY - IC50): 5.37 µM |
| COc1ccc(-c2cc3ncnc(NCC4CN(Cc5ccccc5)CCO4)c3s2)cc1 (configuration not stated) | > 10 µM | IC50 (PBLUC_HILL_SLOPE 9.06, PBLUC_R_SQUARED 0.282, read-out: LUCIFERASE INFECTION ASSAY - IC50): 8.38 µM |
| COc1ccc(-c2cncc(-c3ccc(N)cc3)n2)cc1 | 11.7 µM | IC50 [1]: 7.82 µM |
| CN(C)CCCNc1nc(-c2cccs2)nc2sc3c(c12)CCCC3 | 4.04 µM | IC50 (PBLUC_HILL_SLOPE 12.2, PBLUC_R_SQUARED 0.29, read-out: LUCIFERASE INFECTION ASSAY - IC50): 3.37 µM |
| O=C(c1cc(C(=O)N2CCCC2)c2nc3scc(-c4ccccc4)c3c(=O)n2c1)c1cc(F)ccc1O | > 10 µM | IC50 (FFLUC_HILL_SLOPE 12.4, FFLUC_R_SQUARED 0.51, HEPG2TOX_HILL_SLOPE 7.25, HEPG2TOX_R_SQUARED 0.253, PBLUC_HILL_SLOPE 65.5, PBLUC_R_SQUARED 0.659, read-out: LUCIFERASE INFECTION ASSAY - IC50): 9.78 µM |
| CCOC(=O)c1cc(C#N)c(N2CCN(S(=O)(=O)c3ccccc3Cl)CC2)nc1C(F)(F)F | > 6.56 µM | IC50 [1]: > 6.56 µM |
| COc1ccc(-c2nc(-c3ccccc3)c(-c3ccccc3)[nH]2)cc1OCC(N)=O | > 10 µM | IC50 (PBLUC_HILL_SLOPE 1.74, PBLUC_R_SQUARED 0.661, read-out: LUCIFERASE INFECTION ASSAY - IC50): 6.3 µM |
| Cc1ccc(-c2cnn3c(N4CCCC4)cc(C)nc23)cc1 | 9.26 µM | IC50 (PBLUC_HILL_SLOPE 2.02, PBLUC_R_SQUARED 0.442, read-out: LUCIFERASE INFECTION ASSAY - IC50): 3.13 µM |
| Cc1nc(=O)c2c(C)c(C(=O)OCC(=O)/C=C3\N(C)c4ccccc4C3(C)C)sc2[nH]1 | > 10 µM | IC50 (HEPG2TOX_HILL_SLOPE 0.0151, HEPG2TOX_R_SQUARED 0.0709, PBLUC_HILL_SLOPE 3.19, PBLUC_R_SQUARED 0.563, read-out: LUCIFERASE INFECTION ASSAY - IC50): 6.65 µM |
| N#C/C(=N\Nc1ccc(C(F)(F)F)cc1)S(=O)(=O)c1cccs1 | 8.89 µM | IC50 (HEPG2TOX_HILL_SLOPE 12.1, HEPG2TOX_R_SQUARED 0.95, PBLUC_HILL_SLOPE 4.11, PBLUC_R_SQUARED 0.238, read-out: LUCIFERASE INFECTION ASSAY - IC50): 5.21 µM |
| Cc1ccc(-c2nnc3n2CCCCC3)cc1NC(=O)c1ccc([N+](=O)[O-])o1 | > 10 µM | IC50 (HEPG2TOX_HILL_SLOPE 6.11, HEPG2TOX_R_SQUARED 0.316, PBLUC_HILL_SLOPE 1.35, PBLUC_R_SQUARED 0.486, read-out: LUCIFERASE INFECTION ASSAY - IC50): 6.12 µM |

| SMILES | IC90 | other results |
| --- | --- | --- |
| O=S(=O)(Oc1ccc(Cl)cc1)c1cc(S(=O)(=O)Oc2ccc(Cl)cc2)c(Cl)s1 | > 6.6 µM | IC50 [1]: > 6.6 µM |
| COc1ccc(CNc2ncnc3ccsc23)cc1 | > 10 µM | IC50 [1]: 8.88 µM |
| CCOC(=O)c1c(NC(=O)Cn2ncc(Cl)c(Cl)c2=O)sc(C(=O)NC)c1C | 6.18 µM | IC50 (HEPG2TOX_HILL_SLOPE 14.3, HEPG2TOX_R_SQUARED 0.883, PBLUC_HILL_SLOPE 2.04, PBLUC_R_SQUARED 0.801, read-out: LUCIFERASE INFECTION ASSAY - IC50): 2.11 µM |
| CC(=O)c1cccc(-c2cnc3ccc(-c4cncnc4)nn23)c1 | 3.69 µM | IC50 (HEPG2TOX_HILL_SLOPE 1.11, HEPG2TOX_R_SQUARED 0.828, PBLUC_HILL_SLOPE 6.15, PBLUC_R_SQUARED 0.481, read-out: LUCIFERASE INFECTION ASSAY - IC50): 2.58 µM |
| Cc1cccc(C)c1NC(=O)N1[C@@H]2CC[C@@H](C2)[C@H]1c1nc2c(OCCC3CCCCC3)cccc2[nH]1 | > 10 µM | IC50 (FFLUC_HILL_SLOPE 3.83, FFLUC_R_SQUARED 0.822, PBLUC_HILL_SLOPE 12.1, PBLUC_R_SQUARED 0.296, read-out: LUCIFERASE INFECTION ASSAY - IC50): 9.48 µM |
| COc1cc(-c2nc3ccc(NC(=O)c4cccnc4)cn3n2)cc(OC)c1OC | > 10 µM | IC50 (PBLUC_HILL_SLOPE 1.26, PBLUC_R_SQUARED 0.59, read-out: LUCIFERASE INFECTION ASSAY - IC50): 6.96 µM |
| Cc1cc(N2CCN(C)CC2)n2ncc(-c3ccccc3Cl)c2n1 | > 9.65 µM | IC50 (PBLUC_HILL_SLOPE 0.809, PBLUC_R_SQUARED 0.766, read-out: LUCIFERASE INFECTION ASSAY - IC50): 1.46 µM |
| CN(C)CCNC(=O)c1ccc(-c2cn3c(-c4ccc5c(ccn5C)c4)cnc3cn2)cc1 | > 7.53 µM | IC50 (PBLUC_HILL_SLOPE 3.24, PBLUC_R_SQUARED 0.242, read-out: LUCIFERASE INFECTION ASSAY - IC50): > 7.53 µM |
| O=C(Nc1ccc(OC(F)(F)F)cc1)Nc1ccccc1Sc1ncc([N+](=O)[O-])cc1C(F)(F)F | > 6.37 µM | IC50 (FFLUC_HILL_SLOPE 90.5, FFLUC_R_SQUARED 0.394, read-out: LUCIFERASE INFECTION ASSAY - IC50): > 6.37 µM |
| Cc1cccc(Cn2c(CN3CCCCC3)nc3ccccc32)c1 | 9.84 µM | IC50 (HEPG2TOX_HILL_SLOPE 11.8, HEPG2TOX_R_SQUARED 0.182, PBLUC_HILL_SLOPE 4.42, PBLUC_R_SQUARED 0.595, read-out: LUCIFERASE INFECTION ASSAY - IC50): 5.99 µM |
| COc1ccc(NC(C(=O)Nc2cccc(C(F)(F)F)c2)c2ccccc2)cc1OC (configuration not stated) | > 10 µM | IC50 (PBLUC_HILL_SLOPE 1.54, PBLUC_R_SQUARED 0.609, read-out: LUCIFERASE INFECTION ASSAY - IC50): 5.09 µM |
| COC(=O)C1=C(Nc2ccc(OC(=O)Nc3cccc(Cl)c3)cc2)CSC1 | > 8.15 µM | IC50 (FFLUC_HILL_SLOPE 18, FFLUC_R_SQUARED 0.412, read-out: LUCIFERASE INFECTION ASSAY - IC50): > 8.15 µM |
| CC(C)(C)c1ccc(NC(=O)c2nc(-c3ccccc3)n(-c3ccccc3)n2)cc1 | > 10 µM | IC50 [1]: > 10 µM |
| COc1ccc(CCNC(=O)c2ccc3cc[nH]c3c2)cc1 | > 11.2 µM | IC50 (PBLUC_HILL_SLOPE 0.599, PBLUC_R_SQUARED 0.245, read-out: LUCIFERASE INFECTION ASSAY - IC50): 4.75 µM |
| CCCCCNC(=O)COC(=O)c1ccccc1-n1ncc(Cl)c(Cl)c1=O | 7.79 µM | IC50 (HEPG2TOX_HILL_SLOPE 4.14, HEPG2TOX_R_SQUARED 0.93, PBLUC_HILL_SLOPE 2.41, PBLUC_R_SQUARED 0.609, read-out: LUCIFERASE INFECTION ASSAY - IC50): 3.13 µM |
